In patent US20100144790A1, “Use of Thalidomide for Alzheimers Disease Treatment and Prevention” (priority 2008, published 2010):
“Also recorded” adds a separate entry of the source.

Experiments:
BACE1 [1] = experiment: BACE1 protein level in Thalidomide-treated APP23 mice; type: in vivo, mouse; details: Thalidomide 100 mg/kg/day i.p.
Protocol: (§1) Thalidomide is an effective BACE1 inhibitor. The Thalidomide used to test effectiveness was ordered from Sigma, T144, 1.0 gram. The Thalidomide dose was 100 mg/kg/day. The application of Thalidomide to the mice born by the same mother was during the period from 9 months old to 12 months old. The preparation of Thalidomide was at first to be dissolved in DMSO and then diluted with saline. The injection into peritoneal cavity was performed once a day for 3 months. In general, the average weight of the mice was 30 grams. The volume of injection was 100 mg/kg/day×0.03 Kg/mouse=3 mg/mouse/day (if 10 mg/ml of Thalidomide, then 300 ul/mouse/day). […] The amyloid plaque number was 84.6/section in untreated control APP23 mice, where as there was only 3.91/section in the Thalidomide-treated APP23 mice. Use of Thalidomide in the transgenic mice reduced Aβ plaque formation and Aβ production, which is correlated to the reduced BACE1 enzymatic activity and protein level. Thus Thalidomide can decrease CSF BACE1 and CSF Aβ in AD and MCI patients. […]
One BACE1 ELISA used a combination of a highly specific anti-BACE1 polyclonal antibody SECB2 as a capture antibody and biotinylated anti-BACE1 polyclonal antibody SECB1 as a detection antibody. […] The concentration of BACE1 will be calculated from the standard curve and expressed as μg/ml.

[2] = test system: Aβ deposition in the brain of APP23 mice; experiment: Aβ plaque number by 6E10 immunostaining in APP23 mice after Thalidomide injection; type: in vivo, mouse; details: Thalidomide 100 mg/kg
Protocol: as §1, with “level.” for “level. Thus Thalidomide can decrease CSF BACE1 and CSF Aβ in AD and MCI patients.”
(§2) Quantitation of immunoreactive structures 30-μm serial sagittal sections through the entire rostrocaudal extent of the hippocampus were cut on a cryostat. […] For each section, we delineated a 400-μm^2 area in CA1 and in the entorhinal cortex and counted all NeuN-immunoreactive cells within that 400-μm^2 box. The mean sum of neurons was counted per animal (n=10). […] We also measured the diameter of each counted plaque. […]

APP23 transgenic mice [3] = experiment: Aβ-related memory deficits in Thalidomide-treated APP23 mice; type: in vivo, mouse; details: Thalidomide 100 mg/kg/day i.p.
Protocol: The Thalidomide used to test effectiveness was ordered from Sigma, T144, 1.0 gram. […] The application of Thalidomide to the mice born by the same mother was during the period from 9 months old to 12 months old. The preparation of Thalidomide was at first to be dissolved in DMSO and then diluted with saline. The injection into peritoneal cavity was performed once a day for 3 months. In general, the average weight of the mice was 30 grams. […] The Hole-board memory task was used to measure a mouse's ability to remember which one out of four equidistant holes was baited with food. Two photobeam apparatuses were used with a hole board for assessing directed exploration in mice for behavioral tests. A tested mouse (n=10 for each group) was placed in the center of the hole-board and the number of nose pokes was automatically registered for 5 min. […] The number of head dips, time spent head-dipping, and the number of rearings was recorded. A comprehensive cognitive performance was determined by calculating the mean number of correct pokes per trial that mouse made each day. Cognition was expressed as the percentage of correct pokes. The measurements in the hole-board test were analyzed by unpaired t test. […] A recognition index was calculated for each mouse, expressed as the ratio (100TB)×(TA+TB), where TA and TB are the time spent during the second trial on subject A and subject B, respectively.

BACE1 [4] = biological target: T1, BACE1 (Mus musculus, UniProt P56818); experiment: BACE1 enzymatic activity in frontal cortex crude extracts of Thalidomide-treated APP23 mice (fluorescent-labeled APP peptide); type: in vivo; details: Thalidomide 100 mg/kg
T1 construct: the frontal cortices of 12-months old APP23 transgenic mice after Thalidomide treatment with doses of 100 mg/kg for one month were obtained for the enzymatic crude extracts; from tissue; host or cells: frontal cortex / brain homogenate of APP23 transgenic mice (C57BL/6 background)
T1 sequence (P56818 46-501): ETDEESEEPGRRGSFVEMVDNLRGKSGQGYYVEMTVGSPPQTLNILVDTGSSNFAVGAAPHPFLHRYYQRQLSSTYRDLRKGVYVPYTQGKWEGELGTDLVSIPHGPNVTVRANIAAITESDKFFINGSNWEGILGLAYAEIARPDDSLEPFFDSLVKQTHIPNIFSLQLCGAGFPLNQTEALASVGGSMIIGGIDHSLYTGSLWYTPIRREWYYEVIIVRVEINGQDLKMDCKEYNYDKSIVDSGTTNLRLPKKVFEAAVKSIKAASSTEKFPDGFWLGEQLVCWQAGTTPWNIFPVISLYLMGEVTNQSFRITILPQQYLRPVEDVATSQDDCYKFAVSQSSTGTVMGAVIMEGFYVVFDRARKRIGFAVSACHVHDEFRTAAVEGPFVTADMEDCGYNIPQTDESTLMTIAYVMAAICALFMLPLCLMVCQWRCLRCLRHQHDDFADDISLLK
Protocol: Thalidomide is an effective BACE1 inhibitor. The Thalidomide used to test effectiveness was ordered from Sigma, T144, 1.0 gram. The Thalidomide dose was 100 mg/kg/day. The application of Thalidomide to the mice born by the same mother was during the period from 9 months old to 12 months old. The preparation of Thalidomide was at first to be dissolved in DMSO and then diluted with saline. The injection into peritoneal cavity was performed once a day for 3 months. In general, the average weight of the mice was 30 grams. The volume of injection was 100 mg/kg/day×0.03 Kg/mouse=3 mg/mouse/day (if 10 mg/ml of Thalidomide, then 300 ul/mouse/day). […]
BACE1 enzymatic activity was measured by using an aliquot of brain homogenate from APP23 and the wild-type mice. […] An equal amount of protein was mixed with 100 μl of substrate, and fluorescence intensity was measured with a microplate reader (BioTek) at an excitation wavelength of 320 nm and an emission wavelength of 390 nm.
To evaluate the BACE1 enzymatic activity level under the impact of Thalidomide, the frontal cortices of 12-months old APP23 transgenic mice after Thalidomide treatment with doses of 100 mg/kg for one month were obtained for the enzymatic crude extracts. […] The specific fluorescence was detected when labeled APPwt or APPsw peptides were cleaved by BACE1. […]

Aβ production = Aβ production in Thalidomide-treated APP23 mice; type: in vivo, mouse; details: Thalidomide 100 mg/kg/day i.p.
Protocol: as §1, with “level.” for “level. Thus Thalidomide can decrease CSF BACE1 and CSF Aβ in AD and MCI patients.”
APP23 and wild-type mice (n=10 per group) were killed at 12 and 24 mo of age, and one hemisphere of the brain was homogenized in homogenization buffer (250 mM sucrose, 20 mM Tris-HCl, pH 7.4, 1 mM EDTA, and 1 mM EGTA). […] Protein concentration was measured by protein assay (Bio-Rad Laboratories). […] Aβ40 and Aβ42 were measured with an Aβ40 and Aβ42 ELISA kit (Biosource International). […]

[5] = cited from earlier work
APP23 transgenic mice [6] = experiment: Neuronal loss in Thalidomide-treated APP23 mice; type: in vivo, mouse; details: Thalidomide 100 mg/kg/day i.p.
Protocol: as §1, with “level.” for “level. Thus Thalidomide can decrease CSF BACE1 and CSF Aβ in AD and MCI patients.”
as §2

BACE1 [7] = biological target: T2, BACE1 (Homo sapiens, UniProt P56817); experiment: BACE1 enzymatic activity of AD brain crude extracts with caspase inhibitor; type: biochemical; details: AD brain enzymatic crude extracts incubated with the caspase inhibitor
T2 construct: from tissue; host or cells: post-mortem brain of sporadic AD patients (temporal cortex / hippocampus samples)
T2 sequence (P56817 46-501): as the sequence (P56818 46-501) above, with S6P, I162V, I165L, T180S, A182V, V340I, A393L, H443Q counted along it
Source text: BACE1 enzymatic activity level increased in brains of AD patients. Fluorescent transfer peptides bearing the APP wild-type peptide (APPwt) BACE1 cleavage site (KTEEISEVKMDAE) or APP Swedish mutation (APPsw) BACE1 cleavage site ([…]) were used to test BACE1 enzymatic activity. These peptides were also labeled with methoxycoumarin acetic acid (MCA) and dinitrophenyl (DNP). As a positive control, we transiently transfected BACE1 cDNA or empty vector into HEK293 cells, and observed high-intensity fluorescence with BACE1-transfected cells (FIG. 2A). Enzymatic activity, represented by the fluorescent intensity of APPwt and APPsw fragments, increased in AD brain samples compared with ND samples (FIG. 2A). Further, more APPsw fragment than the APPwt fragment was cleaved by crude extracts from AD brain (FIG. 2A).

| Compound | BACE1 protein level (in words) (BACE1 [1]) | Aβ plaque number ([2]; 12 months of age, frontal cortex, 6E10 immunostaining, untreated APP23 84.6/section) | Aβ deposition / Aβ plaques (in words) ([2]; versus untreated APP23 mice) | Aβ-related memory deficits (in words) (APP23 transgenic mice [3]) | BACE1 enzymatic activity level (in words) (BACE1 [4]; 12 months old APP23 mice, frontal cortex extracts, versus untreated APP23 mice) | decrease in BACE1 activity levels (BACE1 [4]; both the in vitro and in vivo studies, APP23 mice) [%] | Aβ production (in words) (Aβ production) | tolerability of regimen (in words) ([5]; 400 mg Thalidomide, non-elderly subjects with other conditions, without dose-related, severe or serious adverse events) | maximum tolerable doses ([5]; human, in vivo) | neuronal loss (in words) (APP23 transgenic mice [6]) | effect on BACE1 enzymatic activity assay (in words) (BACE1 [7]) |
| --- | --- | --- | --- | --- | --- | --- | --- | --- | --- | --- | --- |
| O=C1CCC(N2C(=O)c3ccccc3C2=O)C(=O)N1 (centres unmarked) [Thalidomide] | reduced | 3.91 /section | reduced; also recorded: fewer Aβ plaques | alleviated | reduced | 42 | significant reduction | tolerated | 400-800 mg/daily | decreased neuronal loss |  |
| ZVAD (Ome)-CH2F |  |  |  |  |  |  |  |  |  |  | did not perturb activity |
